Results reported in PubChem BioAssay AID1996.
Values after ≈ are worked out from the molar mass of the structure shown.

Conditions: buffer; pH 7.4; 200.0 µM

Row | SMILES | solubility kinetic [µg/mL]
1 | CCS(=O)(=O)Nc1cc2c3c(c1)CCC(=O)N3CCC2 | > 44.2
2 | O=C(CNC(=O)c1ccc(Br)cc1)NC1CC1 | > 44.6
3 | O=C(Nc1ccc(Br)cc1)NC1CCCCCCC1 | < 0.3
4 | O=c1c2cc(F)ccc2[nH]c(=S)n1Cc1ccc(F)cc1 | 0.9 (≈ 2.96 µM)
5 | Cn1c(N)c(C(=O)CSc2nnc3n2CCCCC3)c(=O)n(C)c1=O | > 54.7
6 | O=C(Nc1cccc(S(=O)(=O)N2CCOCC2)c1)c1ccc(=O)[nH]c1 | > 54.5
7 | Cc1ccc(C)c(NC2=C(Cl)C(=O)OC2OC(C)C)c1 (stereo not given) | 10.8 (≈ 36.5 µM)
8 | COc1cc(/C=C/C(=O)Nc2cccnc2)cc(OC)c1OC | 40.9 (≈ 130 µM)
9 | Cc1cc(NC(=O)Cc2ccccc2C)no1 | 32.5 (≈ 141 µM)
10 | COCCCNC(=S)Nc1cc2oc3ccccc3c2cc1OC | 3.9 (≈ 11.3 µM)
11 | CCOC(=O)C(CC(=O)O)NCc1ccco1 (stereo not given) | 34.3 (≈ 142 µM)
12 | Cc1ccc(NC(=O)Cn2ccc(=O)[nH]c2=O)cc1 | > 38.9
13 | O=C(NC(=S)Nc1cc([N+](=O)[O-])ccc1O)C1CC1 | > 42.2
14 | CCc1ccc(CN2CCC(CO)(CC3CCCCO3)CC2)o1 (stereo not given) | 38.1 (≈ 119 µM)
15 | Cc1oc(S(=O)(=O)N(C)C)cc1C(=O)Nc1ccc(F)cc1 | 2.3 (≈ 7.05 µM)
16 | Cc1ccsc1/C=C1/SC(=O)N(CC(=O)N2CCCC2)C1=O | 5.9 (≈ 17.5 µM)
17 | Cc1ccc(C)n1CCN1CCN(C(=O)CC#N)CC1 | > 41.2
18 | CCCCC(CC)C(=O)Nc1ncc([N+](=O)[O-])s1 (stereo not given) | > 40.7
19 | COCCN(CCOC)C(=O)N1CCOCC1 | > 36.9
20 | Cc1ccc(N2CCCC2=O)cc1S(=O)(=O)N1CCOCC1 | > 48.7
21 | O=C(NC1CCN(c2ncccn2)CC1)c1ccccc1Cl | > 47.5
22 | CSc1nc2c(cc1C#N)CCC2 | 5.1 (≈ 26.8 µM)
23 | COc1cc(C)c(Cl)cc1S(=O)(=O)NCc1ccccn1 | 34.5 (≈ 106 µM)
24 | COc1ccc(S(=O)(=O)N2CCN(Cc3cccs3)CC2)cc1OC | 55.7 (≈ 146 µM)
25 | CCCNC(=S)N1CCC(NC(=O)Nc2ccc(C)cc2)CC1 | 4.9 (≈ 14.6 µM)

Row | SMILES | solubility kinetic [µg/mL]
26 | C[N+](C)(C)Cc1ccccc1.[Cl-] | > 27.9
27 | COC1CCCCC1NCCc1ccccc1.O=C(O)C(=O)O (stereo not given) | > 48.5
28 | CN(C)C(CNC1CC(C)(C)NC(C)(C)C1)c1cccc(F)c1 (stereo not given) | 34.7 (≈ 108 µM)
29 | O=C(Nc1ccc2c(c1)CCC2)c1ccc(Br)s1 | < 0.7
30 | O=C(Nc1ncc([N+](=O)[O-])s1)c1ccccc1Br | 41.1 (≈ 125 µM)
31 | O=CC(Cl)P(=O)(N1CCOCC1)N1CCOCC1 (stereo not given) | 32.5 (≈ 110 µM)
32 | CCOc1ccc(CC(=O)N2CCN=C2SC)cc1 | > 41.8
33 | Cc1ccc(OC(C)C(=O)OCC(=O)Nc2sccc2C(N)=O)cc1 (stereo not given) | > 54.4
34 | COC(=O)c1ccc(NC(=O)Cn2c([N+](=O)[O-])cnc2C)cc1 | 28.8 (≈ 90.5 µM)
35 | CCOC(=O)C1CCN(Cc2ccc(O)c3ncccc23)CC1 | 1.6 (≈ 5.09 µM)
36 | CCOc1ccc(OCCSc2nc(N)cc(=O)[nH]2)cc1 | 4.1 (≈ 13.3 µM)
37 | Cc1cccc(CCNCc2cc3cc(C)cc(C)c3[nH]c2=O)c1 | 42.5 (≈ 133 µM)
38 | CC1(c2cccc(Br)c2)NC(=O)N(CC(=O)Nc2ccc3c(c2)OCCO3)C1=O (stereo not given) | 67.3 (≈ 146 µM)
39 | COc1ccc(C(=O)OCC(=O)c2ccc3c(c2)NC(=O)CO3)cc1OC | 10.8 (≈ 29.1 µM)
40 | Cc1ccc(S(=O)(=O)N2CCOCC2)cc1NC(=O)COC(=O)/C=C/c1ccco1 | 11.4 (≈ 26.2 µM)
41 | O=S(=O)(c1ccccc1)N1CCN(CCO)CC1 | > 40.6
42 | Cc1ccc(C)c(S(=O)(=O)N(C)Cc2cccs2)c1 | 9.9 (≈ 33.5 µM)
43 | CC(=O)Nc1ccc(NC(=O)C(C)OC(=O)C23CC4CC(CC(Cl)(C4)C2)C3)cc1 (stereo not given) | 61.5 (≈ 147 µM)
44 | N#C/C(=C\N1CCOCC1)C(N)=O | > 27.2
45 | CC(C)(C)C(=O)CN1C(=O)NC2(CCCc3ccccc32)C1=O (stereo not given) | > 47.2
46 | O=S(=O)(NC1C2CC3CC(C2)CC1C3)c1ccccc1 (stereo not given) | 23.4 (≈ 80.3 µM)
47 | COc1ccccc1CN(C)C(=O)c1cnc(C)cn1 | > 40.7
48 | COc1ccc(C)cc1Nc1nc(N)c2cc(OC)c(OC)cc2n1 | 40.1 (≈ 118 µM)
49 | CSc1ncc(Cl)c(C(=O)Nc2cccnc2)n1 | > 42.1
50 | CC(C)C(=O)O/N=C1\CCS(=O)(=O)c2sccc21 | > 43.1

Row | SMILES | solubility kinetic [µg/mL]
51 | CCCCN(CC)C(=O)c1cc2c(=O)n3cccc(C)c3nc2s1 | 44.5 (≈ 130 µM)
52 | COc1ccc2c(c1)C(=O)N(c1ccc(C)cc1C)C(=O)C2(C)C | 5.3 (≈ 16.4 µM)
53 | O=C1C2C3C=CC(CC3)C2C(=O)N1c1ccc(F)cc1 (stereo not given) | 17.9 (≈ 66 µM)
54 | COc1ccc(Nc2oc(-c3ccc(F)cc3)nc2C#N)cc1 | < 0.2
55 | CC(C)(C)OC(=O)NCCc1n[nH]c(=S)o1 | > 36.8
56 | CN(CCN1CCOCC1)Cc1nc(-c2ccc3c(c2)OCO3)no1 | 48.5 (≈ 140 µM)
57 | Cc1cc(N2CCCC2=O)ccc1S(=O)(=O)NC1CCCCC1 | 29.3 (≈ 87.1 µM)
58 | O=C(CNC(=O)c1ccc(Cl)cc1Cl)OC1CCCCC1=O (stereo not given) | 39.4 (≈ 114 µM)
59 | CC(=O)c1c(C)[nH]c(C(=O)N2CCCC(C)C2)c1C (stereo not given) | > 39.4
60 | CC(=O)N1CCC(N(C(=O)Nc2ccc(Cl)cc2)C(C)C)CC1 | > 50.7
61 | C/C(CCC1CC(C)OC1=O)=N\NC(N)=S (stereo not given) | > 36.5
62 | COc1cccc(-c2ocnc2C(=O)Nc2ccc3c(c2)CCC3)c1 | < 0.4
63 | COc1ccc(NC(=O)CSc2nnc(N)s2)cc1S(=O)(=O)N1CCCCC1 | > 66.5
64 | Cc1ccc(-c2cn3cccnc3n2)cc1 | > 31.4
65 | Cc1ccccc1C(=O)N1CCC(C(=O)NC2CCCCCC2)CC1 | 48.6 (≈ 142 µM)
66 | Cc1c(C(=O)O)cccc1-c1ccc(/C=C2\SC(=O)NC2=O)o1 | > 49.4
67 | CCCc1cc(C(=O)Nc2ccc(OC)cc2[N+](=O)[O-])cs1 | < 0.3
68 | CCCN1CCN(CCNC(=O)Nc2cc(C)ccc2C)CC1 | > 47.8
69 | CC(=O)N1CCN(CC(=O)Nc2cc(F)ccc2C)CC1 | > 44
70 | Cn1c(SCc2c(F)cccc2Cl)nc2c(c1=O)SCC2 | 6.1 (≈ 17.8 µM)
71 | Cl.Oc1ccc(Nc2ncnc3c2oc2ccccc23)cc1 | 0.7
72 | COC(=O)/C(C#N)=C/c1c(-c2ccccc2)nc2n1CCS2 | 7.5 (≈ 24.1 µM)
73 | CCOc1ccc(NC(=O)COC(=O)CC2CCCCC2)cc1 | 26.6 (≈ 83.3 µM)

Further lines, results first:

Row | solubility kinetic [µg/mL] | SMILES
74 | 52 (≈ 142 µM) | O=C(O)CSCC(=O)NCc1c(Cl)cccc1Oc1ccccc1
75 | > 44.7 | O=C(CNC(=O)c1ccco1)NCc1nc2ccccc2[nH]1
76 | 14.6 (≈ 38.9 µM) | Fc1ccc(CNc2ccc(N3CCN(Cc4ccccc4)CC3)cc2)cc1
77 | > 49.3 | O=[N+]([O-])c1ccc(OCc2n[nH]c(=S)n2-c2ccccc2)cc1
78 | 5 (≈ 15.2 µM) | O=C(COc1cccc(F)c1)Nc1nc(-c2ccncc2)cs1
79 | 6.3 (≈ 13.8 µM) | Cn1c(N)c(C(=O)COC(=O)c2ccccc2C(=O)c2ccc(Cl)cc2)c(=O)n(C)c1=O
80 | > 51.1 | CCOC(=O)C1=C(C)N(C)C(=O)NC1c1c(O)ccc2ccccc12 (stereo not given)
81 | 8.3 (≈ 23 µM) | COc1ccccc1CCN=C(N)NS(=O)(=O)c1ccc(C)c(C)c1
82 | 10.3 (≈ 48.5 µM) | c1ccc2nc(-c3nccs3)ccc2c1
83 | 24.1 (≈ 95.5 µM) | Cc1ccc(-c2nc3ccccc3c(=O)n2O)cc1
84 | 39.1 (≈ 134 µM) | COc1ccccc1C(=O)Nc1cccc2nc(C)ccc12
85 | > 52.8 | Cc1cccc(C(=O)NCC(=O)OCC(=O)c2ccc(Cl)s2)c1
86 | > 36.9 | Nc1cc(N)nc(SCCc2ccccc2)n1
87 | > 50.5 | CC1CCN(C(=O)c2ccccc2NC(=O)Cc2ccccc2)CC1
88 | 1.6 (≈ 4.96 µM) | CC(C)c1ccccc1NC(=O)CN1C(=O)c2ccccc2C1=O
89 | 2.5 (≈ 7.68 µM) | NC(=O)CSc1nc2ccccc2c(=O)n1Cc1ccccc1
90 | 2.7 (≈ 8.42 µM) | N/C(=N\OC(=O)c1ccc(Cl)c([N+](=O)[O-])c1)c1ccccn1
91 | 7.2 (≈ 25.5 µM) | N/C(=N\OC(=O)CCCc1ccccc1)c1ccccc1
92 | > 32.7 | CCOC(=O)c1nc2ccccc2c(=O)[nH]1
93 | 47.4 (≈ 140 µM) | CC(C)CCNCC(O)CON=C1c2ccccc2-c2ccccc21 (stereo not given)
94 | < 0.7 | Cc1ccc(C(=O)N2C(=O)C(c3ccccc3)Oc3ccccc32)cc1 (stereo not given)
95 | 4.2 (≈ 13.1 µM) | CNc1oc(-c2cccs2)nc1S(=O)(=O)c1ccccc1
96 | > 51.6 | CC(NC(=O)c1c(F)cccc1Cl)c1ccc(-n2ccnc2)cc1 (stereo not given)
97 | > 42.9 | COc1ccccc1NC(=O)COC(=O)c1ccccn1

Row | solubility kinetic [µg/mL] | SMILES
98 | > 37.8 | CC(=O)Nc1ccc(C(=S)NCCCO)cc1
99 | > 47.9 | O=c1ccc2cc(S(=O)(=O)Nc3ccccc3F)ccc2o1
100 | > 47.6 | O=C(O)c1cc(-c2ccc3ccccc3c2)nc2ccc(F)cc12
101 | 24.5 | Cc1cc2ccc3ccccc3c2cc1CN(C)C.Cl
102 | 39.1 (≈ 125 µM) | Brc1ccccc1OCCCCN1CCCCC1
103 | > 50.3 | COc1ccc(Br)cc1CN(C)C(=O)c1ccncc1
104 | 6.2 (≈ 23.3 µM) | Cc1ccccc1-c1cn(-c2ccccc2)c(=S)[nH]1
105 | 35.8 (≈ 119 µM) | COc1ccc(CNC(=O)COc2ccc(OC)cc2)cc1
106 | < 0.7 | COC(=O)c1ccc(NC(=O)CCC(=O)c2ccc(F)cc2)cc1
107 | > 35.7 | Nc1ccccc1C(=O)N1CCc2ccccc21
108 | 0.3 (≈ 1.1 µM) | COC(=O)c1cccc(Nc2ccc([N+](=O)[O-])cn2)c1
109 | > 41.6 | COc1ccc2nc(SCCC(=O)O)cc(C)c2c1
110 | 8.1 (≈ 22.4 µM) | COc1ccccc1C(=O)N(C1=NC(C)CS1)c1ccc(Cl)cc1 (stereo not given)
111 | > 49 | O=C(CCOc1ccccc1)N1CCN(c2ccc(O)cc2)CC1
112 | > 34.1 | CC(NCc1ccccc1O)c1ccccc1 (stereo not given)
113 | 1.8 (≈ 4.04 µM) | CN(c1ccccc1)S(=O)(=O)c1cccc(NC(=O)c2ccc(Cl)c([N+](=O)[O-])c2)c1
114 | < 0.4 | CCOC(=O)c1cnc(-c2ccccc2)nc1Oc1ccc(OC)cc1
115 | < 0.4 | O=C(/C=C\c1ccccc1)Nc1ccc(NC(=O)c2ccco2)cc1
116 | 3.8 (≈ 14.3 µM) | Cc1cccc(NC(=O)C2CC2c2ccccc2)c1C (stereo not given)
117 | 4.9 (≈ 13.5 µM) | CC(NC(=S)NC(=O)c1ccccc1Br)c1ccccc1 (stereo not given)
118 | 35.5 (≈ 104 µM) | O=C(COC(=O)c1ccc(OC(F)F)cc1)NCc1cccs1
119 | 1.5 (≈ 4.82 µM) | O=C(Nc1cc([N+](=O)[O-])ccc1N1CCCC1)c1ccccc1
120 | < 0.4 | CCOC(=O)c1cc(-c2csc(COc3ccccc3Cl)n2)on1
